{"source": "paper PMC7101355", "about": "“Activation and self-inactivation mechanisms of the cyclic oligoadenylate-dependent CRISPR ribonuclease Csm6” (Nature Communications, 2020)", "molecules": {"B1": {"name": "Enterococcus italicus Csm6 (EiCsm6), wild type (enzyme)", "chain": "MKILFSPIGNTDPWRNDRDGAMLHIVRHYQPDRVVLFFTESIWQGNQHFSGQQAFDWVKIIQSINENCQIEIKCDTIEVENDFDAYKDLFHQYLVEEKRKYPNAEIFLNVTSGTPQMETTLCLEYVTYPDKMRCIQVSTPLKTSNAKTKYAQADCQEVDLEIVNEEESQQPSRCHKIAILSFREAIVRNQIKSLLDNYDYEAALQLVASQKSFRNGKEIRKKLKELIDDIKMHRVFSYLIKQYPRNEKLQKALLHTILLEMRHQRGDIAETLIRVKSIAEYIVEQYIQKNYPYLIIYKEDKPYFNVSYSQELTESYLALMDSRNKKTNKKMTVDSLDRILGFPAYRDFLQLLEASNEMTNEMNKVNEINNLRNKVAHNLDSLNLDRDKNGRKITNAVTAVRTMLLAVFPEVQENDFHYLKQFNQSIKELL", "notes": "Csm6 ribonuclease (CARF and HEPN domains) of the type III CRISPR-Cas system of Enterococcus italicus DSM-15952; gene amplified from genomic DNA; Cloned into the 1B vector (Addgene 29653): N-terminal hexahistidine tag followed by a TEV site, removed with TEV protease; Crystallised with the small-molecule ligand cFA6 (PDB 6TUG) or with cA6; also called WT EiCsm6; source: E. coli BL21 Star (DE3), …"}}, "key": {"EiCsm6 [1]": {"target": "T1, EiCsm6 (Enterococcus italicus, UniProt E6LHV2)", "T1 construct": "gene csm6; recombinant from E. coli BL21 Star (DE3); N-terminal His6-TEV tag cut; full gene; homodimer, ligand site at the CARF domain interface", "T1 sequence (E6LHV2 1-430)": "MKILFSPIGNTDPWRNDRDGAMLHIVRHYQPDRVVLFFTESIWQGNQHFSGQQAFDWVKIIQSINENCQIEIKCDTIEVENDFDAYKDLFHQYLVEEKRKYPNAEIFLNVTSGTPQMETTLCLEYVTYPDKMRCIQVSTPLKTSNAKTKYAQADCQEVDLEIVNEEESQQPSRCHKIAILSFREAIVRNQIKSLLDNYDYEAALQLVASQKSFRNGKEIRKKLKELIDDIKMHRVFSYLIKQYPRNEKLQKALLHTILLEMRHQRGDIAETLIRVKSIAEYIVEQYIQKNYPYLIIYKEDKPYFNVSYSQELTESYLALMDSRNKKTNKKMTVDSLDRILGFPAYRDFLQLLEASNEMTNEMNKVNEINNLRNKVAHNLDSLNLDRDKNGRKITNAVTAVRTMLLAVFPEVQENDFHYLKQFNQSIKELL", "assay": "LC-MS degradation assay; RNaseAlert activation assay", "assay_type": "biochemical", "settings": "25 uM cA6 and 25 uM protein, 37 °C, 1 h; also allosteric activator at CARF domain"}, "EiCsm6 [2]": {"target": "T1, EiCsm6", "assay": "fluorogenic RNaseAlert ribonuclease assay, initial velocities, variable Hill fit", "assay_type": "biochemical", "settings": "5 nM EiCsm6, 10 mM HEPES pH 7.5, 50 mM KCl; allosteric activator at CARF domain, read-out HEPN RNase"}, "EiCsm6 [3]": {"target": "T1, EiCsm6", "assay": "X-ray crystal structure of the complex, […] Å", "assay_type": "binding", "settings": "bound at the CARF domain dimer interface, one cFA6 per homodimer"}, "[4]": {"target": "the molecule itself", "assay": "crystal structure; EiCsm6 (120 uM) co-crystallised with the cA6 mimic cFA6 (288 uM); 100 mM HEPES pH 7.5, 1.6 M ammonium sulfate, 25 mM lithium perchlorate; space group P1, four homodimers in the asymmetric unit; 2.4 A"}}, "data": [{"molecule": "Nc1ncnc2c1ncn2[C@@H]1O[C@@H]2COP(=O)(O)O[C@H]3[C@@H](O)[C@H](n4cnc5c(N)ncnc54)O[C@@H]3COP(=O)(O)O[C@H]3[C@@H](O)[C@H](n4cnc5c(N)ncnc54)O[C@@H]3COP(=O)(O)O[C@H]3[C@@H](O)[C@H](n4cnc5c(N)ncnc54)O[C@@H]3COP(=O)(O)O[C@H]3[C@@H](O)[C@H](n4cnc5c(N)ncnc54)O[C@@H]3COP(=O)(O)O[C@H]3[C@@H](O)[C@H](n4cnc5c(N)ncnc54)O[C@@H]3COP(=O)(O)O[C@H]2[C@H]1O", "note": "[cA6]", "values": [{"measurement": "LC-MS degradation assay; RNaseAlert activation assay", "setting": "EiCsm6 [1]", "result": "revealing that cA6 was efficiently degraded to yield a mixture of products"}]}, {"molecule": "Nc1ncnc2c1ncn2[C@@H]1O[C@@H]2COP(=O)(O)O[C@H]3[C@@H](F)[C@H](n4cnc5c(N)ncnc54)O[C@@H]3COP(=O)(O)O[C@H]3[C@@H](F)[C@H](n4cnc5c(N)ncnc54)O[C@@H]3COP(=O)(O)O[C@H]3[C@@H](F)[C@H](n4cnc5c(N)ncnc54)O[C@@H]3COP(=O)(O)O[C@H]3[C@@H](F)[C@H](n4cnc5c(N)ncnc54)O[C@@H]3COP(=O)(O)O[C@H]3[C@@H](F)[C@H](n4cnc5c(N)ncnc54)O[C@@H]3COP(=O)(O)O[C@H]2[C@H]1F", "note": "[cFA6, 2’-,2’’-,2’’’,2’’’’,2’’’’’,2’’’’’’-hexadeoxy-2’-,2’’,2’’’,2’’’’,2’’’’’,2’’’’’’-hexafluoro-cyclic hexaadenosine monophosphate]", "values": [{"measurement": "EC50", "setting": "EiCsm6 [2]", "result": 0.17, "unit": "µM"}, {"measurement": "X-ray crystal structure of the complex, 2.4 Å", "setting": "EiCsm6 [3]", "result": "we co-crystallized EiCsm6 with cFA6 and determined the structure of the complex"}]}, {"molecule": "B1", "values": [{"measurement": "stoichiometry N", "setting": "[4]", "result": 2}]}]}
